What was measured:
mouse [1] = settings: Carcinogenicity, cd1, Oral, [Not Specified], dose end: 79 week, group: systemic
rabbit = settings: Prenatal developmental toxicity study, new zealand white, Oral, Gavage/Intubation, dose end: 28 GD
dog [2] = settings: Subchronic oral toxicity in nonrodent, beagle, Feed, dose end: 13 week, group: systemic, systemic / in life observation / body weight / body weight gain + systemic / in life observation / clinical signs / anemia + systemic / in …
rat [3] = settings: Combined chronic toxicity/carcinogenicity, sprague dawley, Oral, Feed, dose end: 24 month, group: systemic
rat [4] = settings: Multigenerational reproductive toxicity study, sprague dawley, Oral, Feed, dose end: 2 generation
dog [5] = settings: Chronic toxicity, beagle, Oral, Feed, dose end: 52 week, group: systemic
rat [6] = settings: Subchronic oral toxicity in rodents, sprague dawley, Feed, dose end: 90 day, group: systemic, systemic / in life observation / body weight / body weight + systemic / in life observation / body weight / body weight gain
rat [7] = settings: Multigenerational reproductive toxicity study, sprague dawley, Oral, Feed, dose end: 3 generation
rat [8] = settings: Prenatal developmental toxicity study, fischer, Oral, Feed, dose end: 20 GD
mouse [9] = settings: Combined chronic toxicity/carcinogenicity, b6c3f1, Oral, Feed, dose end: 105 week, group: systemic
rat [10] = settings: Subchronic oral toxicity in rodents, sprague dawley, Feed, dose end: 13 week, group: systemic, systemic / clinical chemistry / alanine aminotransferase (alt/sgpt) / alanine aminotransferase (alt/sgpt) + systemic / clinical chemistry / …
rat [11] = settings: Combined chronic toxicity/carcinogenicity, fischer, Oral, Feed, dose end: 105 week, group: systemic
mouse [12] = settings: Developmental neurotoxicity study; cd1; Oral; Feed; dose end: 63 PND; group: cannot be grouped; reproductive / offspring survival early / dead fetuses / dead fetuses
rat [13] = settings: Combined chronic toxicity/carcinogenicity, sprague dawley, Oral, Feed, dose end: 24 month, group: systemic; remark: listed apart in the source
dog [14] = settings: Subchronic oral toxicity in nonrodent, beagle, Feed, dose end: 90 day, group: systemic
rat [15] = settings: Subchronic oral toxicity in rodents, sprague dawley, Feed, dose end: 90 day, group: systemic
mouse [16] = settings: Subchronic oral toxicity in rodents, cd1, Feed, dose end: 13 week, group: systemic
rat [17] = settings: Multigenerational reproductive toxicity study, sprague dawley, Oral, Feed, dose end: 2 generation; remark: listed apart in the source
dog [18] = settings: Subchronic oral toxicity in nonrodent, beagle, Feed, dose end: 13 week, group: systemic
rat [19] = settings: Subchronic oral toxicity in rodents, Sprague-Dawley, Feed, dose end: 90 day, group: systemic, systemic / in life observation / body weight / body weight gain
dog [20] = settings: Subchronic oral toxicity in nonrodent, beagle, Capsule, dose end: 13 week, group: systemic
[21] = systemic / in life observation / body weight / body weight + systemic / in life observation / body weight / body weight gain + systemic / …
[22] = group: developmental, developmental / developmental malformation / bone / ossification sites + developmental / developmental malformation / lung / absent + …
[23] = group: maternal, reproductive / reproductive performance / premature delivery / premature delivery + systemic / in life observation / clinical signs / …
[24] = systemic / in life observation / body weight / body weight + systemic / in life observation / food consumption / food consumption + systemic…
[25] = systemic / organ weight / liver / relative to body weight + systemic / pathology microscopic / liver / infiltration cellular
[26] = group: offspring, developmental / developmental landmark / preputial separation / preputial separation + systemic / in life observation / body weight / …
[27] = group: parental, systemic / in life observation / body weight / body weight + systemic / in life observation / body weight / body weight gain + systemic / …
[28] = group: reproductive, reproductive / offspring survival early / dead fetuses / dead fetuses
[29] = systemic / clinical chemistry / alanine aminotransferase (alt/sgpt) / alanine aminotransferase (alt/sgpt)
[30] = systemic / hematology / anemia / anemia - nos + systemic / hematology / erythrocyte (rbc) count differential / erythrocyte (rbc) + systemic…
[31] = group: offspring, developmental / developmental landmark / vaginal opening / vaginal opening + systemic / in life observation / body weight / offspring (pup) …
[32] = group: parental, systemic / in life observation / body weight / body weight + systemic / organ weight / kidney / absolute + systemic / organ weight / kidney…
[33] = group: reproductive, reproductive / reproductive performance / fertility / fertility + reproductive / offspring survival early / litter size / litter size
[34] = group: developmental, systemic / in life observation / body weight / fetal weight
[35] = group: maternal, systemic / in life observation / body weight / body weight + systemic / in life observation / body weight / body weight gain + systemic / …
[36] = group: maternal, systemic / organ weight / liver / absolute + systemic / organ weight / liver / relative to body weight + systemic / in life observation / …
[37] = systemic / pathology microscopic / testes / degeneration + systemic / pathology microscopic / liver / carcinoma
[38] = systemic / in life observation / body weight / body weight gain
[39] = systemic / in life observation / body weight / body weight gain + systemic / in life observation / food consumption / food efficiency
[40] = systemic / in life observation / body weight / body weight gain + systemic / in life observation / food consumption / food efficiency + …
[41] = systemic / in life observation / body weight / body weight + systemic / in life observation / body weight / body weight gain + systemic / in…
[42] = systemic / organ weight / heart / relative to body weight
[43] = systemic / in life observation / body weight / body weight gain + systemic / in life observation / body weight / body weight + systemic / in…
[44] = group: offspring, systemic / in life observation / clinical signs / reduced body size
[45] = group: parental, systemic / in life observation / food consumption / food consumption
[46] = group: parental, systemic / in life observation / food consumption / food consumption + systemic / in life observation / body weight / body weight + systemic…
[47] = group: reproductive, reproductive / offspring survival early / litter size / litter size
[48] = systemic / in life observation / body weight / body weight gain + systemic / in life observation / food consumption / food consumption + …
[49] = systemic / in life observation / food consumption / food consumption + systemic / in life observation / body weight / body weight gain
[50] = systemic / clinical chemistry / gamma glutamyl transferase (ggt) / gamma glutamyl transferase (ggt) + systemic / in life observation / …

## CN/C(=N\[N+](=O)[O-])NCc1cnc(Cl)s1 [Clothianidin]
Mouse [1]; systemic / in life observation / body weight / body weight + systemic / in life observation / body weight / body weight gain
  LOAEL: 216 mg/kg/day
Mouse [1]; [21]
  NOAEL: 65.1 mg/kg/day
Mouse [1]; systemic / in life observation / clinical signs / excessive or spontaneous vocalization
  LEL: 171 mg/kg/day
Mouse [1]; systemic / in life observation / clinical signs / excessive or spontaneous vocalization + systemic / in life observation / body weight / …
  NEL: 47.2 mg/kg/day
rabbit; group: developmental, developmental / developmental malformation / bone / ossification sites + developmental / developmental malformation / lung / absent
  LOAEL: 75 mg/kg/day
rabbit; [22]
  LEL: 75 mg/kg/day
  NEL: 25 mg/kg/day
  NOAEL: 25 mg/kg/day
rabbit; [23]
  LEL: 75 mg/kg/day
  LOAEL: 75 mg/kg/day
  NEL: 25 mg/kg/day
  NOAEL: 25 mg/kg/day
Dog [2]
  LEL: 40.9 mg/kg/day
  LOAEL: 40.9 mg/kg/day
  NEL: 19.3 mg/kg/day
  NOAEL: 19.3 mg/kg/day
Rat [3]; [24]
  LOAEL: 97.8 mg/kg/day
  NOAEL: 32.5 mg/kg/day
Rat [3]; [25]
  LEL: 9.7 mg/kg/day
  NEL: < 9.7 mg/kg/day
Rat [4]; [26]
  LEL: 34.3 mg/kg/day
  LOAEL: 34.3 mg/kg/day
  NEL: 10.7 mg/kg/day
  NOAEL: 10.7 mg/kg/day
Rat [4]; [27]
  LEL: 163 mg/kg/day
  LOAEL: 163 mg/kg/day
  NEL: 31.2 mg/kg/day
  NOAEL: 31.2 mg/kg/day
Rat [4]; [28]
  LEL: 31.2 mg/kg/day
  LOAEL: 31.2 mg/kg/day
  NEL: 9.8 mg/kg/day
  NOAEL: 9.8 mg/kg/day
Dog [5]; [29]
  LEL: 36.3 mg/kg/day
  NEL: 16.6 mg/kg/day
Dog [5]; [30]
  LOAEL: 52.9 mg/kg/day
  NOAEL: 40.1 mg/kg/day
Rat [6]
  LEL: 202 mg/kg/day
  LOAEL: 202 mg/kg/day
  NOAEL: 27.9 mg/kg/day

## CCCCC(CC)COC(=O)c1ccccc1C(=O)OCC(CC)CCCC (stereo unspecified) [Di(2-ethylhexyl) phthalate]
Rat [7]; [31]
  LEL: 391 mg/kg/day
  LOAEL: > 391 mg/kg/day
  NEL: 48 mg/kg/day
  NOAEL: ≥ 391 mg/kg/day
Rat [7]; [32]
  LOAEL: > 391 mg/kg/day
  NEL: 14 mg/kg/day
  NOAEL: ≥ 391 mg/kg/day
Rat [7]; group: parental, systemic / organ weight / liver / relative to body weight + systemic / pathology microscopic / kidney / dilatation + systemic / pathology …
  LEL: 48 mg/kg/day
Rat [7]; group: reproductive, reproductive / reproductive performance / fertility / fertility
  NEL: 48 mg/kg/day
Rat [7]; [33]
  LEL: 391 mg/kg/day
  LOAEL: > 391 mg/kg/day
  NOAEL: ≥ 391 mg/kg/day
Rat [8]; [34]
  LEL: 666 mg/kg/day
  LOAEL: 666 mg/kg/day
  NEL: 357 mg/kg/day
  NOAEL: 357 mg/kg/day
Rat [8]; [35]
  LOAEL: 666 mg/kg/day
  NOAEL: 357 mg/kg/day
Rat [8]; [36]
  LEL: 357 mg/kg/day
  NEL: < 357 mg/kg/day
Mouse [9]; systemic / pathology microscopic / liver / carcinoma + systemic / in life observation / body weight / body weight + systemic / in life …
  NEL: 450 mg/kg/day
Mouse [9]; systemic / pathology microscopic / testes / degeneration
  LOAEL: 900 mg/kg/day
Mouse [9]; [37]
  LEL: 900 mg/kg/day
  NOAEL: 450 mg/kg/day
Rat [10]
  LEL: 0.25 mg/kg/day
  LOAEL: > 250 mg/kg/day
  NEL: < 0.25 mg/kg/day
  NOAEL: ≥ 250 mg/kg/day
Rat [11]; [38]
  LEL: 300 mg/kg/day
  NEL: < 300 mg/kg/day
Rat [11]; systemic / in life observation / body weight / body weight gain + systemic / pathology microscopic / liver / carcinoma + systemic / in life …
  NOAEL: 300 mg/kg/day
Rat [11]; systemic / in life observation / body weight / body weight gain + systemic / pathology microscopic / testes / degeneration
  LOAEL: 600 mg/kg/day
Mouse [12]
  LEL: 171 mg/kg/day
  NEL: 56 mg/kg/day

## O=C(Nc1ccccc1)Nc1ccnc(Cl)c1 [Forchlorfenuron]
Rat [13]; [21]
  LOAEL: 93 mg/kg/day
  NOAEL: 7 mg/kg/day
Rat [13]; systemic / pathology microscopic / kidney / dilatation + systemic / organ weight / adrenal gland / absolute + systemic / organ weight / …
  NEL: 518 mg/kg/day
Dog [14]; [39]
  LOAEL: 173 mg/kg/day
  NOAEL: < 173 mg/kg/day
Dog [14]; [40]
  LEL: 173 mg/kg/day
  NEL: < 173 mg/kg/day
Rat [15]; [41]
  LOAEL: 428 mg/kg/day
  NOAEL: 84 mg/kg/day
Rat [15]; [42]
  LEL: 16 mg/kg/day
  NEL: < 16 mg/kg/day
Mouse [16]; [38]
  LOAEL: 1290 mg/kg/day
Mouse [16]; [43]
  LEL: 1290 mg/kg/day
  NEL: 609 mg/kg/day
  NOAEL: 609 mg/kg/day
Rat [17]; group: offspring, systemic / in life observation / body weight / offspring (pup) weight + developmental / offspring survival late / lactation index / …
  NOAEL: 13 mg/kg/day
Rat [17]; group: offspring, systemic / in life observation / body weight / offspring (pup) weight + systemic / in life observation / clinical signs / reduced body size
  LOAEL: 168 mg/kg/day
Rat [17]; [44]
  LEL: 13 mg/kg/day
  NEL: < 13 mg/kg/day
Rat [17]; [45]
  LEL: 144 mg/kg/day
  LOAEL: 144 mg/kg/day
Rat [17]; [46]
  NEL: 11 mg/kg/day
  NOAEL: 11 mg/kg/day
Rat [17]; [47]
  LEL: 829 mg/kg/day
  LOAEL: 829 mg/kg/day
  NEL: 168 mg/kg/day
  NOAEL: 168 mg/kg/day
Dog [18]; [48]
  LOAEL: 162 mg/kg/day
  NOAEL: 16.8 mg/kg/day
Dog [18]; [49]
  LEL: 1.8 mg/kg/day
  NEL: < 1.8 mg/kg/day

## CCc1cccc(C)c1N(C(=O)CS(=O)(=O)O)C(C)COC (stereo unspecified) [Metolachlor ESA]
Rat [19]
  LEL: 1540 mg/kg/day
  LOAEL: > 1540 mg/kg/day
  NEL: 427 mg/kg/day
  NOAEL: ≥ 1540 mg/kg/day
Dog [20]; systemic / clinical chemistry / gamma glutamyl transferase (ggt) / gamma glutamyl transferase (ggt) + systemic / clinical chemistry / …
  LEL: 200 mg/kg/day
Dog [20]; [50]
  LOAEL: > 1000 mg/kg/day
  NOAEL: ≥ 1000 mg/kg/day

From EPA's ToxRefDB 2
